Data: patent US20070154543A1, “Solid preparation for oral use” (KYORIN PHARMACEUTICAL CO., LTD, priority 2003, published 2007)

Experiment: Pharmacokinetics of KRP-101 in plasma after oral or intravenous administration
Type: in vivo
Conditions: male Beagle dog, intravenous, 0.5 mg/kg
Method: To a male Beagle dog, one tablet of the film-coated tablets obtained in Example 1 was administered orally or 0.5 mg/kg of KRP-101 were administered intravenously, and the concentration of KRP-101in plasma was measured until 24 hours after administration.

In the case of CC[C@@H](Cc1ccc(OC)c(C(=O)NCc2ccc(Oc3ccc(F)cc3)cc2)c1)C(=O)O [KRP-101, (S)-2-[3-[N-[4-(4-fluorophenoxy)benzyl]carbamoyl]-4-methoxybenzyl]butanoic acid], the “AUC (Total area under concentration-time curve)” value is reported as 1354 ng·h/mL and the half-life (plasma, read-out: T½ (Elimination half-life) (converted)) is reported as 2.2 h.
